Data reported in paper PMC9961271, “Inhibitory Effects of a Novel μ-Opioid Receptor Nonpeptide Antagonist, UD-030, on Morphine-Induced Conditioned Place Preference” (International Journal of Molecular Sciences, 2023).
Structures can show the parent of a compound that is named as a salt.

What was measured:
[1] = target: T1, human MOP (Homo sapiens, UniProt P35372); test: [35S]-GTPγS binding assay, hMOP/CHO membranes; type: biochemical
[2] = system: C57BL/6J mice; test: Acquisition of morphine-induced conditioned place preference; type: in vivo, male C57BL/6J mice; settings: for time spent in the drug-paired compartment, postconditioning / time spent in the drug-paired compartment, preconditioning: n = 8; for morphine-induced CPP score compared with the vehicle-pretreated group: Dunnett's test
Description: (§1) For the pharmacokinetic and pharmacological studies, morphine hydrochloride (Takeda Pharma, Osaka, Japan) was dissolved and diluted in saline and administered intraperitoneally (i.p.) in a volume of 10 mL/kg body weight. […] All experiments were conducted with a dose of morphine (10 mg/kg) that is sufficient to elicit CPP.
(§2) Male Crl:CD1 (ICR) mice (Japan CLEA, Tokyo, Japan) were used at 5 weeks of age for the pharmacokinetic analysis. Male C57BL/6J mice (Japan CLEA) were used at 7 weeks of age for the behavioral analyses. The mice were housed 4–6 per cage in an environment at 23 °C ± 1 °C and 50% ± 5% humidity with free access to food and water under a 12 h/12 h light/dark cycle. All experiments were performed with approval from the Institutional Animal Care and Use Committee at the Tokyo Metropolitan Institute of Medical Science.
(§3) The CPP test was performed using a two-compartment Plexiglas chamber. […] For the preconditioning and postconditioning phases, a T-style division with double 60 mm × 60 mm openings allowed the mice to access both compartments. During the conditioning phases, the openings were eliminated to restrict the mice to one of the compartments. The CPP apparatus was placed in a sound-attenuated, light-controlled box. On day 1 (preconditioning: habituation) and day 2 (preconditioning: pretest), the mice freely explored the two compartments for 900 s, and the time spent in each compartment during the exploratory period and locomotor activity were measured using an infrared detector (Neuroscience, Osaka, Japan). We selected a counterbalanced protocol to nullify each mouse’s initial preference as discussed previously. […] Conditioning was conducted once daily for 4 consecutive days (days 3–6). The mice were injected with morphine (10.0 mg/kg, i.p.) or saline and immediately confined to the black or white compartment for 60 min on day 3. On day 4, the mice were alternately injected with saline or drug and immediately confined to the opposite compartment for 60 min. On days 5 and 6, the same conditioning as on days 3 and 4 was repeated. The assignment of the mice to the conditioned compartment was performed randomly and counterbalanced across subjects. During the postconditioning phase on day 7, the time spent in each compartment was measured for 900 s. The CPP score was designated as the time spent in the drug-paired compartment on day 7 minus the time spent in the same compartment in the preconditioning phase on day 2.
(§4) The data were analyzed using two-way repeated-measures ANOVA followed by Sidak’s multiple-comparison post hoc test, one-way ANOVA followed by Dunnett’s multiple-comparison post hoc test, or Student’s t-test using GraphPad Prism software. Values of p < 0.05 were considered statistically significant.

[3] = system: C57BL/6J mice; test: Expression of morphine-induced conditioned place preference; type: in vivo, male C57BL/6J mice; settings: for time spent in the morphine-paired compartment, postconditioning / time spent in the morphine-paired compartment, preconditioning: n = 8; for morphine-induced CPP score compared with the vehicle-treated control group: 10 mg/kg p.o. before the postconditioning phase, Dunnett's test, UD-030 p = 0.038, NTX p = 0.042; for sedative effects (number of transitions between compartments): 10 mg/kg p.o., postconditioning phase
Description: as §1, §2, §3, §4

[4] = target: T2, human KOP (Homo sapiens, UniProt P41145); test: [35S]-GTPγS binding assay, hKOP/CHO membranes; type: biochemical
[5] = target: T3, human DOP (Homo sapiens, UniProt P41143); test: [35S]-GTPγS binding assay, hDOP/CHO membranes; type: biochemical
[6] = target: T2, human KOP; test: Competitive radioligand binding assay, hKOP/CHO membranes
[7] = target: T4, human NOP (Homo sapiens, UniProt P41146); test: Competitive radioligand binding assay, hNOP/CHO membranes
[8] = target: T1, human MOP; test: Competitive radioligand binding assay, hMOP/CHO membranes
[9] = target: T4, human NOP; test: [35S]-GTPγS binding assay, hNOP/CHO membranes; type: biochemical
[10] = target: T3, human DOP; test: Competitive radioligand binding assay, hDOP/CHO membranes
[11] = Pharmacokinetics after a single oral administration (plasma, LC-MS/MS); settings: male, Crl:CD1 (ICR), mouse; for concentration at 0.5 h / concentration at 1 h / concentration at 2 h / concentration at 4 h / concentration at 8 h / concentration at 24 h: in vivo; for AUC(0-t) / Cmax / Tmax: plasma; for Tmax: mice
[12] = 10 mg/kg p.o. 60 min before each morphine treatment (10 mg/kg, i.p.)
[13] = 10 mg/kg p.o. before each morphine treatment, UD-030 p < 0.001, NTX p = 0.003
[14] = 10 mg/kg p.o. 60 min before the postconditioning phase
[15] = 3 mg/kg p.o. 60 min before each morphine treatment (10 mg/kg, i.p.)

Work on C[C@@H](NC(=O)[C@@H](N)Cc1ccc(O)cc1)C(=O)NCC(=O)N(C)[C@@H](Cc1ccccc1)C(=O)NCCO [DAMGO, reference compound] yielded an Emax ([1]; hMOP/CHO, read-out: maximal effect (agonistic activity)) of over 95%.

In the case of O=C1CC[C@@]2(O)[C@H]3Cc4ccc(O)c5c4[C@@]2(CCN3CC2CC2)[C@H]1O5 [NTX, naltrexone, reference compound], the “time spent in the drug-paired compartment, postconditioning” value [2, 12] is reported as 436.5 ± 49.7 s, the “time spent in the drug-paired compartment, preconditioning” value [2, 12] is reported as 437.0 ± 38.1 s and the “morphine-induced CPP score compared with the vehicle-pretreated group” value [2, 13] is reported as “significantly lower”. For the same molecule, the “time spent in the morphine-paired compartment, postconditioning” value [3, 14] was 474.1 ± 29.9 s, the “time spent in the morphine-paired compartment, preconditioning” value [3, 14] was 441.6 ± 33.0 s and the “morphine-induced CPP score compared with the vehicle-treated control group” value [3] was “significantly decreased”. For the same molecule, the “sedative effects (number of transitions between compartments)” value [3] was “did not exert sedative effects”.

Molecule CC[C@]1(c2cc(NS(=O)(=O)C3CC3)ccc2F)[C@@H]2CN(CC3(O)Cc4ccccc4C3)C[C@@H]21 [UD-030] has an EC50 [4] of over 10 µM, an IC50 [4] of 0.085 µM and a maximal inhibitory effect ([4]; against U-69593) of over 95%. For the same molecule, the “stimulation of [35S]-GTPγS binding” value ([4]; high concentration (10 µM)) was “did not stimulate”, the “time spent in the drug-paired compartment, postconditioning” value [2, 15] was 470.6 ± 16.5 s and the “time spent in the drug-paired compartment, preconditioning” value [2, 15] was 445.2 ± 18.9 s. The “morphine-induced CPP score compared with the vehicle-pretreated group” value ([2]; 3 mg/kg p.o. before each morphine treatment, p = 0.023) was “significantly lower”, the “time spent in the drug-paired compartment, postconditioning” value [2, 12] was 392.8 ± 42.3 s and the “time spent in the drug-paired compartment, preconditioning” value [2, 12] was 434.9 ± 30.5 s. The “morphine-induced CPP score compared with the vehicle-pretreated group” value [2, 13] was “significantly lower”, the EC50 [5] was over 10 µM and the IC50 [5] was 0.85 µM. The maximal inhibitory effect ([5]; against DPDPE) was over 95%, the “stimulation of [35S]-GTPγS binding” value ([5]; high concentration (10 µM)) was “did not stimulate” and the EC50 [1] was over 10 µM. For the same molecule, the IC50 [1] was 0.0017 µM, the maximal inhibitory effect ([1]; against DAMGO) was over 95% and the “stimulation of [35S]-GTPγS binding” value ([1]; high concentration (10 µM)) was “did not stimulate”. For the same molecule, the Ki [6] was 0.46 µM, the Ki [7] was 1.8 µM and the Ki [8] was 0.0031 µM. It also gave an EC50 [9] of over 10 µM, an IC50 [9] of 0.33 µM and a maximal inhibitory effect ([9]; against nociceptin) of over 95%. For the same molecule, the “stimulation of [35S]-GTPγS binding” value ([9]; high concentration (10 µM)) was “did not stimulate”, the Ki [10] was 1.8 µM and the concentration at 0.5 h ([11]; 0.5 mg/kg) was 1.09 ± 0.4 ng/mL. It also gave a concentration at 1 h ([11]; 0.5 mg/kg) of 2.86 ± 1.6 ng/mL, a concentration at 2 h ([11]; 0.5 mg/kg) of 2.96 ± 0.3 ng/mL and a concentration at 4 h ([11]; 0.5 mg/kg) of 4.61 ± 1.9 ng/mL. The concentration at 8 h ([11]; 0.5 mg/kg) was 4.95 ± 0.9 ng/mL, the concentration at 24 h ([11]; 0.5 mg/kg) was 0.231 ng/mL and the concentration at 0.5 h ([11]; 1 mg/kg) was 4.76 ± 1.9 ng/mL. For the same molecule, the concentration at 1 h ([11]; 1 mg/kg) was 6.98 ± 1.7 ng/mL, the concentration at 2 h ([11]; 1 mg/kg) was 14.9 ± 0.9 ng/mL and the concentration at 4 h ([11]; 1 mg/kg) was 11.5 ± 2.9 ng/mL. For the same molecule, the concentration at 8 h ([11]; 1 mg/kg) was 10.9 ± 2.1 ng/mL, the concentration at 24 h ([11]; 1 mg/kg) was 0.358 ng/mL and the concentration at 0.5 h ([11]; 2 mg/kg) was 11.8 ± 5.4 ng/mL. For the same molecule, the concentration at 1 h ([11]; 2 mg/kg) was 25.5 ± 2.2 ng/mL, the concentration at 2 h ([11]; 2 mg/kg) was 36.1 ± 8.3 ng/mL and the concentration at 4 h ([11]; 2 mg/kg) was 26.7 ± 3.3 ng/mL. For the same molecule, the concentration at 8 h ([11]; 2 mg/kg) was 18.8 ± 9.2 ng/mL, the concentration at 24 h ([11]; 2 mg/kg) was 0.35 ng/mL and the concentration at 0.5 h ([11]; 4 mg/kg) was 27.7 ± 24 ng/mL. For the same molecule, the concentration at 1 h ([11]; 4 mg/kg) was 119 ± 35 ng/mL, the concentration at 2 h ([11]; 4 mg/kg) was 72.7 ± 18 ng/mL and the concentration at 4 h ([11]; 4 mg/kg) was 103 ± 15 ng/mL. For the same molecule, the concentration at 8 h ([11]; 4 mg/kg) was 69.4 ± 10 ng/mL, the concentration at 24 h ([11]; 4 mg/kg) was 0.395 ± 0.1 ng/mL and the AUC(0-t) ([11]; 0.5 mg/kg) was 72.3 ng·h/mL. The Cmax ([11]; 0.5 mg/kg) was 4.95 ng/mL, the Tmax ([11]; 0.5 mg/kg, Tmax, 0.5 mg/kg p.o.) was 8 h and the AUC(0-t) ([11]; 1 mg/kg) was 176 ng·h/mL. It also gave a Cmax ([11]; 1 mg/kg) of 14.9 ng/mL, a Tmax ([11]; 1 mg/kg, Tmax, 1 mg/kg p.o.) of 2 h and an AUC(0-t) ([11]; 2 mg/kg) of 350 ng·h/mL. For the same molecule, the Cmax ([11]; 2 mg/kg) was 36.1 ng/mL, the Tmax ([11]; 2 mg/kg, Tmax, 2 mg/kg p.o.) was 2 h and the AUC(0-t) ([11]; 4 mg/kg) was 1220 ng·h/mL. The Cmax ([11]; 4 mg/kg) was 119 ng/mL, the Tmax ([11]; 4 mg/kg, Tmax, 4 mg/kg p.o.) was 1 h and the Tmax ([11]; 4 mg/kg, time to reach the maximum plasma concentration (Tmax), over the doses 0.5, 1, 2 and 4 mg/kg p.o.) was 1 to 8 h. The “time spent in the morphine-paired compartment, preconditioning” value ([3]; 3 mg/kg p.o. 60 min before the postconditioning phase) was 466.8 ± 20.7 s, the “time spent in the morphine-paired compartment, postconditioning” value ([3]; 3 mg/kg p.o. 60 min before the postconditioning phase, p = 0.012 vs pre) was 536.5 ± 24.8 s and the “time spent in the morphine-paired compartment, postconditioning” value [3, 14] was 492.4 ± 32.8 s. The “time spent in the morphine-paired compartment, preconditioning” value [3, 14] was 461.3 ± 20.0 s, the “morphine-induced CPP score compared with the vehicle-treated control group” value [3] was “significantly decreased” and the “sedative effects (number of transitions between compartments)” value [3] was “did not exert sedative effects”. The “behavioral abnormalities during the session” value ([3]; high-dose (10 mg/kg, p.o.)) was “No other notable behavioral abnormalities”.

In the case of CN1CC[C@]23c4c5ccc(O)c4O[C@H]2[C@@H](O)C=C[C@H]3[C@H]1C5 [Morphine, morphine hydrochloride], the “time spent in the drug-paired compartment, preconditioning” value ([2]; morphine 10 mg/kg i.p. conditioning, vehicle-pretreated control mice) is reported as 443.1 ± 33.2 s, the “time spent in the drug-paired compartment, postconditioning” value ([2]; morphine 10 mg/kg i.p. conditioning, vehicle-pretreated control mice, p < 0.001 vs pre) is reported as 554.4 ± 31.8 s and the “time spent in the morphine-paired compartment, preconditioning” value ([3]; morphine 10 mg/kg i.p. conditioning, vehicle-treated control mice) is reported as 443.6 ± 34.4 s. The “time spent in the morphine-paired compartment, postconditioning” value ([3]; morphine 10 mg/kg i.p. conditioning, vehicle-treated control mice, p < 0.001 vs pre) was 554.4 ± 29.7 s.
